Measured values published in EPA's ToxRefDB 2.

Assays:
rat [1] = conditions: Sub-acute repeat dose toxicity, sprague dawley, Oral, Gavage/Intubation, dose end: 28 day, group: systemic
rabbit [2] = conditions: Sub-acute repeat dose toxicity; Oral; Gavage/Intubation; dose end: 5 day; group: systemic; systemic / in life observation / body weight / body weight + systemic / in life observation / clinical signs / [other] + systemic / in life …
rat [3] = conditions: Sub-acute repeat dose toxicity; sprague dawley; Oral; Feed; dose end: 15 day; group: systemic; systemic / in life observation / body weight / body weight + systemic / in life observation / food consumption / food consumption
rat [4] = conditions: Chronic toxicity; sprague dawley; Oral; Gavage/Intubation; dose end: 181 day; group: systemic; systemic / in life observation / body weight / body weight gain + systemic / hematology / reticulocyte / reticulocyte + systemic / pathology…
dog [5] = conditions: Chronic toxicity, beagle, Oral, Gavage/Intubation, dose end: 363 day, group: systemic
mouse [6] = conditions: Sub-acute repeat dose toxicity; Oral; Gavage/Intubation; dose end: 29 day; group: systemic; systemic / clinical chemistry / glucose / glucose + systemic / clinical chemistry / urea nitrogen / urea + systemic / hematology / leukocyte…
primate = conditions: Sub-acute repeat dose toxicity; Oral; Gavage/Intubation; dose end: 6 day; group: systemic; systemic / in life observation / clinical signs / arrhythmia + systemic / in life observation / clinical signs / emesis + systemic / in life…
mouse [7] = conditions: Subchronic oral toxicity in rodents, Gavage/Intubation, dose end: 91 day, group: systemic, systemic / in life observation / body weight / body weight gain + systemic / organ weight / heart / absolute + systemic / organ weight / …
dog [8] = conditions: Sub-acute repeat dose toxicity; beagle; Oral; Gavage/Intubation; dose end: 30 day; group: systemic; systemic / in life observation / body weight / body weight gain + systemic / organ weight / liver / absolute + systemic / organ weight / …
rat [9] = conditions: Prenatal developmental toxicity study, sprague dawley, Oral, Gavage/Intubation, dose end: 18 GD
rat [10] = conditions: Combined chronic toxicity/carcinogenicity, sprague dawley, Oral, Feed, dose end: 104 week, group: systemic
dog [11] = conditions: Subchronic oral toxicity in nonrodent, beagle, Capsule, dose end: 13 week, group: systemic
dog [12] = conditions: Chronic toxicity; beagle; Oral; Capsule; dose end: 1 year; group: systemic; systemic / in life observation / body weight / body weight gain + systemic / in life observation / clinical signs / emesis + systemic / in …
rat [13] = conditions: Prenatal developmental toxicity study, sprague dawley, Oral, Gavage/Intubation, dose end: 15 GD
mouse [14] = conditions: Carcinogenicity, cd1, Oral, Feed, dose end: 78 week, group: systemic
rat [15] = conditions: Multigenerational reproductive toxicity study, sprague dawley, Oral, Feed, dose end: 2 generation
rat [16] = conditions: Subchronic oral toxicity in rodents, other, Feed, dose end: 13 week
rabbit [17] = conditions: Prenatal developmental toxicity study, himalayan, Dermal, Topical, dose end: 19 GD
mouse [18] = conditions: Subchronic oral toxicity in rodents, cd1, Feed, dose end: 13 week, group: systemic
dog [19] = conditions: Chronic toxicity; beagle; Oral; Capsule; dose end: 1 year; group: systemic; systemic / in life observation / body weight / body weight gain + systemic / in life observation / clinical signs / emesis + systemic / in …; remark: listed apart in the source
[20] = systemic / in life observation / body weight / body weight gain + systemic / in life observation / food consumption / food consumption
[21] = systemic / in life observation / body weight / body weight gain + systemic / in life observation / food consumption / food consumption + …
[22] = systemic / in life observation / body weight / body weight gain + systemic / organ weight / liver / absolute + systemic / pathology …
[23] = systemic / organ weight / kidney / absolute + systemic / clinical chemistry / alkaline phosphatase (alp/alk) / alkaline phosphatase (alp/alk…
[24] = group: developmental, developmental / developmental malformation / bone / full supernumerary
[25] = group: maternal, systemic / in life observation / body weight / body weight + systemic / in life observation / food consumption / food consumption
[26] = systemic / clinical chemistry / alanine aminotransferase (alt/sgpt) / alanine aminotransferase (alt/sgpt) + systemic / in life observation…
[27] = systemic / in life observation / body weight / body weight gain + systemic / in life observation / clinical signs / emesis + systemic / in …
[28] = systemic / in life observation / clinical signs / soft stools + systemic / in life observation / food consumption / food consumption
[29] = group: developmental, developmental / developmental malformation / bone / incomplete ossification + systemic / in life observation / body weight / fetal weight
[30] = group: maternal, systemic / in life observation / body weight / body weight gain + systemic / in life observation / food consumption / food consumption
[31] = group: maternal, systemic / in life observation / body weight / body weight gain + systemic / in life observation / food consumption / food consumption + …
[32] = systemic / in life observation / body weight / body weight gain + systemic / in life observation / food consumption / food efficiency + …
[33] = systemic / organ weight / brain / relative to body weight
[34] = group: offspring, systemic / in life observation / body weight / offspring (pup) weight
[35] = group: parental, systemic / in life observation / body weight / body weight + systemic / in life observation / body weight / body weight gain + systemic / in…
[36] = group: cholinesterase, cholinesterase / cholinesterase / cholinesterase / cholinesterase (che)
[37] = group: systemic, systemic / clinical chemistry / urea nitrogen / urea nitrogen
[38] = group: developmental, developmental / developmental malformation / bone / incomplete ossification
[39] = group: maternal, systemic / in life observation / clinical signs / erythema + systemic / in life observation / clinical signs / scabbing + systemic / …
[40] = systemic / clinical chemistry / glucose / glucose

CN1N=C2CCN(C(=O)[C@@H](COCc3ccccc3)NC(=O)C(C)(C)N)C[C@@]2(Cc2ccccc2)C1=O [Capromorelin]
LEL (rat [1]; [20]): 1 mg/kg/day | NEL (rat [1]; [20]): < 1 mg/kg/day | LOAEL (rat [1]; [21]): > 75 mg/kg/day | NOAEL (rat [1]; [21]): ≥ 75 mg/kg/day | LOAEL (rabbit [2]): > 150 mg/kg/day | NEL (rabbit [2]): 50 mg/kg/day | NOAEL (rabbit [2]): ≥ 150 mg/kg/day | LEL (rat [3]): 1200 mg/kg/day | LOAEL (rat [3]): > 1200 mg/kg/day | NOAEL (rat [3]): ≥ 1200 mg/kg/day | LEL (rat [4]): 1 mg/kg/day | LOAEL (rat [4]): > 75 mg/kg/day | NEL (rat [4]): < 1 mg/kg/day | NOAEL (rat [4]): ≥ 75 mg/kg/day | LEL (dog [5]; [22]): 7 mg/kg/day | NEL (dog [5]; [22]): < 7 mg/kg/day | LOAEL (dog [5]; [23]): > 40 mg/kg/day | NOAEL (dog [5]; [23]): ≥ 40 mg/kg/day | LEL (mouse [6]): 3 mg/kg/day | LOAEL (mouse [6]): > 300 mg/kg/day | NEL (mouse [6]): < 3 mg/kg/day | NOAEL (mouse [6]): ≥ 300 mg/kg/day | LEL (primate): 1 mg/kg/day | LOAEL (primate): > 3 mg/kg/day | NEL (primate): < 1 mg/kg/day | NOAEL (primate): ≥ 3 mg/kg/day | LEL (mouse [7]): 30 mg/kg/day | LOAEL (mouse [7]): > 300 mg/kg/day | NEL (mouse [7]): < 30 mg/kg/day | NOAEL (mouse [7]): ≥ 300 mg/kg/day | LEL (dog [8]): 40 mg/kg/day | LOAEL (dog [8]): > 40 mg/kg/day | NEL (dog [8]): 7 mg/kg/day | NOAEL (dog [8]): ≥ 40 mg/kg/day | LOAEL (rat [9]; [24]): > 75 mg/kg/day | NEL (rat [9]; [24]): < 1 mg/kg/day | NOAEL (rat [9]; [24]): ≥ 75 mg/kg/day | LOAEL (rat [9]; [25]): > 75 mg/kg/day | NOAEL (rat [9]; [25]): ≥ 75 mg/kg/day

CC(C)(C)c1ccc(CSc2cnn(C(C)(C)C)c(=O)c2Cl)cc1 [Pyridaben]
LOAEL (rat [10]; [26]): 5 mg/kg/day | NEL (rat [10]; [26]): 0.4 mg/kg/day | LEL (rat [10]; systemic / urinalysis / volume / volume): 1.13 mg/kg/day | LOAEL (dog [11]; [27]): 4 mg/kg/day | NOAEL (dog [11]; [27]): 1 mg/kg/day | LEL (dog [11]; [28]): 0.5 mg/kg/day | NEL (dog [11]; [28]): < 0.5 mg/kg/day | LEL (dog [12]): 1 mg/kg/day | LOAEL (dog [12]): 1 mg/kg/day | NEL (dog [12]): < 1 mg/kg/day | NOAEL (dog [12]): < 1 mg/kg/day | LEL (rat [13]; [29]): 30 mg/kg/day | LOAEL (rat [13]; [29]): 30 mg/kg/day | NEL (rat [13]; [29]): 13 mg/kg/day | NOAEL (rat [13]; [29]): 13 mg/kg/day | LEL (rat [13]; [30]): 13 mg/kg/day | LOAEL (rat [13]; [30]): 13 mg/kg/day | NEL (rat [13]; [31]): 5.7 mg/kg/day | NOAEL (rat [13]; [31]): 5.7 mg/kg/day | LOAEL (mouse [14]; [32]): 8.88 mg/kg/day | NOAEL (mouse [14]; [32]): 2.78 mg/kg/day | LEL (mouse [14]; [33]): 0.26 mg/kg/day | NEL (mouse [14]; [33]): < 0.26 mg/kg/day | LEL (rat [15]; [34]): 6.31 mg/kg/day | LOAEL (rat [15]; [34]): > 6.31 mg/kg/day | NEL (rat [15]; [34]): 2.2 mg/kg/day | NOAEL (rat [15]; [34]): ≥ 6.31 mg/kg/day | LOAEL (rat [15]; [35]): 6.31 mg/kg/day | NOAEL (rat [15]; [35]): 2.2 mg/kg/day | LEL (rat [15]; group: parental, systemic / organ weight / ovary / absolute): 2.41 mg/kg/day | NEL (rat [15]; group: parental, systemic / organ weight / ovary / absolute + systemic / in life observation / body weight / body weight + systemic / in life observation / …): 0.94 mg/kg/day | LEL (rat [16]; [36]): 27.7 mg/kg/day | LOAEL (rat [16]; [36]): > 27.7 mg/kg/day | NEL (rat [16]; [36]): 12.8 mg/kg/day | NOAEL (rat [16]; [36]): ≥ 27.7 mg/kg/day | LEL (rat [16]; [37]): 2.3 mg/kg/day | NEL (rat [16]; [37]): < 2.3 mg/kg/day | LOAEL (rat [16]; group: systemic, systemic / in life observation / body weight / body weight gain + systemic / in life observation / food consumption / food efficiency): 5.53 mg/kg/day | NOAEL (rat [16]; group: systemic, systemic / in life observation / body weight / body weight gain + systemic / in life observation / food consumption / food efficiency + …): 2.64 mg/kg/day | LEL (rabbit [17]; [38]): 450 mg/kg/day | LOAEL (rabbit [17]; [38]): 450 mg/kg/day | NEL (rabbit [17]; [38]): 170 mg/kg/day | NOAEL (rabbit [17]; [38]): 170 mg/kg/day | LEL (rabbit [17]; [39]): 70 mg/kg/day | LOAEL (rabbit [17]; [39]): 70 mg/kg/day | NEL (rabbit [17]; [39]): < 70 mg/kg/day | NOAEL (rabbit [17]; [39]): < 70 mg/kg/day | LEL (mouse [18]; [40]): 4.07 mg/kg/day | NEL (mouse [18]; [40]): < 4.07 mg/kg/day | LOAEL (mouse [18]; systemic / in life observation / body weight / body weight gain): 13 mg/kg/day | NOAEL (mouse [18]; systemic / in life observation / body weight / body weight gain + systemic / clinical chemistry / alkaline phosphatase (alp/alk) / alkaline …): 4.07 mg/kg/day | LEL (dog [19]): 0.5 mg/kg/day | LOAEL (dog [19]): 0.5 mg/kg/day | NEL (dog [19]): < 0.5 mg/kg/day | NOAEL (dog [19]): < 0.5 mg/kg/day
